Reference: PubChem BioAssay (NCI)
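Five concentrations, 48 hours, 96-well plates. At the TGI there is no net growth.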

Assays:
Assay in all cases: growth of human tumour cells (NCI), 48 h
NCI-H23 lung = tested on: NCI-H23 lung
SK-MEL-5 melanoma = tested on: SK-MEL-5 melanoma
MDA-N = tested on: MDA-N
SF-295 CNS = tested on: SF-295 CNS
TK-10 renal = tested on: TK-10 renal
OVCAR-5 ovarian = tested on: OVCAR-5 ovarian
A549 NSCLC = tested on: A549 NSCLC
SN12C renal = tested on: SN12C renal
SK-OV-3 ovarian = tested on: SK-OV-3 ovarian
UACC-257 melanoma = tested on: UACC-257 melanoma

Compound	TGI (NCI-H23 lung) [µM]	TGI (SK-MEL-5 melanoma) [µM]	TGI (MDA-N) [µM]	TGI (SF-295 CNS) [µM]	TGI (TK-10 renal) [µM]	TGI (OVCAR-5 ovarian) [µM]	TGI (A549 NSCLC) [µM]	TGI (SN12C renal) [µM]	TGI (SK-OV-3 ovarian) [µM]	TGI (UACC-257 melanoma) [µM]
COc1cc2c(/C=C3/C(=O)N(c4ccccc4)c4ccccc43)c(Cl)[nH]c2cc1C	7.81	8.35	5.52	> 22.3	12.8	> 40.5	> 38.4	6.29	4.78	21.3
O=c1[nH]nc(Cc2ccccc2)n1-n1cnnc1	> 100	> 100	> 100	> 100	> 100	> 100	> 100	> 100	> 100	> 100
CC(C)CNC(=O)Cn1c(-c2ccccc2)cc2ccccc21	> 100	> 100	> 100	> 100	> 100	> 100	> 100	> 100	> 100	> 100
CC1(COS(=O)(=O)OCC2(C)COS(=O)(=O)OC2)COS(=O)(=O)OC1	> 89.4	> 100	> 100	> 100	> 100	> 100	> 100	> 32.1	> 100	> 100
O=c1oc2ccc(Cl)cc2cc1-c1cn2cc(Cl)ccc2n1	> 100	> 100	2.79	> 100	> 100	> 100	> 87.8	> 100	> 100	> 100
COc1ccc2nc3cc(Cl)ccc3c(NCCNCCCNC(=O)c3cc(-c4ccccc4)nc4ccccc34)c2c1	> 100	> 100	97.5	> 100	> 100	> 100	> 100	> 100	> 100	> 100
c1ccc2c(c1)nc1n2CCSC1	> 100	> 100	> 100	> 100	> 100	> 100	> 100	> 100	> 100	> 100
CCOC(=O)C(CS)NC(=O)CCCCCCCC(=O)NC(CS)C(=O)OCC (stereo not given)	> 100	> 100	> 100	> 100	> 100	> 100	> 100	> 100	> 100	> 100
O=c1[nH]c(N/N=C\C(O)C(O)C(O)CO)nc2ccccc12 (stereo not given)	> 100	> 100	> 100	> 100	> 100	> 100	> 100	> 100	> 100	> 100
